pIC50: −log10 of the molar value.
What was measured:
Format in all cases: cell-based, human
[1] = MTT cell viability after one week steatosis (ranking of target molecules); conditions: human, HepG2 cells (wild type); HepG2, 10 μM, one week steatosis induce media, MTT; Control 100.00
In short: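 HepG2 cells, 60,000 per well, kept one week in steatosis medium (high-glucose DMEM, 10 μg/ml insulin, 10 μM T0901317) with 10 μM compound. Medium changed at day 0, 3 and 5. Viability measured by MTT.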

[2] = MTT cell viability / IC50 in growth media; conditions: human, HepG2 cells, 10 μM; for viability at 2 days, 10 µM: treatment for 2 days; for viability at 4 day, 10 µM: day 4
HepG2 cells [3] = assay: MTT cell viability / IC50 in growth media; conditions: for pIC50: Homo sapiens, 48 h, HepG2, treatment for 2 days; for cell viability of HepG2 cells: especially in cancerous media
HepG2 cells [4] = assay: Mitochondrial membrane potential assay (TMRE); conditions: 10 μM, one day
In short: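 HepG2 cells treated with compounds at the chosen concentration and time, then assayed with kits for TMRE, autophagy, DCFDA ROS or lipid peroxidation. Fluorescence intensity measured from ROI in images or by microplate reader in triplicate (GFP Ex480/Em530 nm, RFP Ex549/Em574 nm).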

Q: Which viability at 1 week, 10 µM [1] does the source give for `N#Cc1c(NC(=O)c2cccc3ccccc23)sc2c1CCCC2` [JNK-IN-5A, N-(3-cyano-4,5,6,7-tetrahydrobenzo[b]thiophen-2-yl)-1-naphthamide] here?
A: 56.4%

Q: What about the viability at 2 days, 10 µM [2] of the same molecule?
A: 59.7%

Q: And the “dose dependence of cell viability” value (HepG2 cells [3]; 30 μM to 30 nM)?
A: non-dose-dependent, linear reduction in cell viability

Q: And the pIC50 (HepG2 cells [3]; 30 μM to 30 nM)?
A: 4.44

Q: And the mitochondrial membrane potential (HepG2 cells [4])?
A: significantly decreased

Q: With `COc1ccccc1NC(=O)N1CCc2c(sc(NC(=O)c3cccc4ccccc34)c2C#N)C1` [PKL-A152] as the molecule, how does the viability at 1 week, 10 µM [1] read?
A: 43.9%

Q: For `N#Cc1c(NC(=O)c2cccc3ccccc23)sc2c1CCN(C(=O)Nc1ccccc1OC(F)(F)F)C2` [PKL-A159], which viability at 1 week, 10 µM [1] is on record?
A: 2.33%

Q: What about the viability at 2 days, 10 µM [2] of the same molecule?
A: 61.6%

Q: And the pIC50 (HepG2 cells [3]; 30 μM to 30 nM)?
A: 5.01

Q: And the mitochondrial membrane potential (HepG2 cells [4])?
A: significantly decreased

Q: What does the source list for `N#Cc1c(NC(=O)c2cccc3ccccc23)sc2c1CCN(CC(=O)Nc1cccc(Br)c1)C2` [PKL-B171]?
A: viability at 1 week, 10 µM [1]: 22%; viability at 4 day, 10 µM [2]: 1.1%; viability at 2 days, 10 µM [2]: 67.4%; pIC50 (HepG2 cells [3]; 30 μM to 30 nM): 4.66; cell viability of HepG2 cells (HepG2 cells [3]): particularly low cell viability; mitochondrial membrane potential (HepG2 cells [4]): significantly decreased

Q: With `COc1ccc(C(=O)Nc2sc3c(c2C#N)CCCCC3)cc1OC` [PKL-A135, N-(3-cyano-5,6,7,8-tetrahydro-4H-cyclohepta[b]thiophen-2-yl)-3,4-dimethoxy-benzamide] as the molecule, how does the viability at 1 week, 10 µM [1] read?
A: 63.2%

Q: And the viability at 4 day, 10 µM [2]?
A: 15.9%

Q: What about the viability at 2 days, 10 µM [2] of the same molecule?
A: 43.1%

Q: What about the pIC50 (HepG2 cells [3]; 30 μM to 30 nM) of the same molecule?
A: 4.92

Q: What about the “cell viability of HepG2 cells” value (HepG2 cells [3]) of the same molecule?
A: significantly low cell viability

Q: What about the mitochondrial membrane potential (HepG2 cells [4]) of the same molecule?
A: significantly decreased

Reference: patent US20260234159A1, “SMALL MOLECULE TREATMENT OF FATTY LIVER DISEASE AND HCC” (SCANDIEDGE THERAPEUTICS AB, priority 2023, published 2026)
